Key:
Test in all cases: selective drug sensitivity score (sDSS, relative to normal bone marrow) (sDSS (score)); higher = more potent and effective on the cell line relative to normal bone marrow cells
Conditions in all cases: 72 h
COG-LL-319h = tested on: COG-LL-319h
COG-LL-402h = tested on: COG-LL-402h
MOLT-4 = tested on: MOLT-4
MN-60 = tested on: MN-60
KOPN-8 = tested on: KOPN-8
RPMI-8402 = tested on: RPMI-8402
REH = tested on: REH
NALM-16 = tested on: NALM-16
MHH-CALL-3 = tested on: MHH-CALL-3
P12-ICHIKAWA = tested on: P12-ICHIKAWA
DND-41 = tested on: DND-41
COG-LL-355h = tested on: COG-LL-355h
KASUMI-10 = tested on: KASUMI-10
LC4-1 = tested on: LC4-1
380 = tested on: 380
MOLT-14 = tested on: MOLT-14
TMD5 = tested on: TMD5
HPB-ALL = tested on: HPB-ALL
NALL-1 = tested on: NALL-1
KASUMI-9 = tested on: KASUMI-9
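Note: ALL cell lines in 384-well plates, five doses spanning 10,000-fold, each plate scaled between vehicle and 100 µmol/L benzalkonium chloride controls, sDSS an adapted area-under-curve metric.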

| Structure (SMILES) | selective drug sensitivity score (COG-LL-319h) | selective drug sensitivity score (COG-LL-402h) | selective drug sensitivity score (MOLT-4) | selective drug sensitivity score (MN-60) | selective drug sensitivity score (KOPN-8) | selective drug sensitivity score (RPMI-8402) | selective drug sensitivity score (REH) | selective drug sensitivity score (NALM-16) | selective drug sensitivity score (MHH-CALL-3) | selective drug sensitivity score (P12-ICHIKAWA) | selective drug sensitivity score (DND-41) | selective drug sensitivity score (COG-LL-355h) | selective drug sensitivity score (KASUMI-10) | selective drug sensitivity score (LC4-1) | selective drug sensitivity score 380 | selective drug sensitivity score (MOLT-14) | selective drug sensitivity score (TMD5) | selective drug sensitivity score (HPB-ALL) | selective drug sensitivity score (NALL-1) | selective drug sensitivity score (KASUMI-9) |
| --- | --- | --- | --- | --- | --- | --- | --- | --- | --- | --- | --- | --- | --- | --- | --- | --- | --- | --- | --- | --- |
| Cc1ccc(NC(=O)c2ccc(CN3CCN(C)CC3)cc2)cc1Nc1nccc(-c2cccnc2)n1 [Imatinib] (top concentration 10000 nM) | 0.06 | -0.44 | -0.34 | -0.44 | -0.04 | 1.46 | 0.56 | -0.44 | -0.44 | 0.16 | 0.26 | -0.44 | -0.44 | 0.36 | -0.44 | 0.46 | 8.96 | 1.06 | -0.44 | -0.44 |
| CC(=O)N(O)CCCCCNC(=O)CCC(=O)N(O)CCCCCNC(=O)CCC(=O)N(O)CCCCCN [Deferoxamine] (top concentration 10000 nM) | 7.86 | 5.76 | 3.56 | 5.16 | 10.4 | 2.06 | 2.46 | 4.66 | -0.54 | 3.66 | 5.16 | 1.46 | 3.06 | 1.76 | 1.96 | 8.76 | -0.24 | 4.06 | -0.74 | 1.16 |
| Cc1cc(Nc2cc(CN3CCOCC3)c3nc(C)c(Cc4ccc(Cl)cc4F)n3n2)n[nH]1 [Gandotinib] (top concentration 10000 nM) | 8.68 | 5.28 | 4.88 | -3.22 | 8.28 | 0.78 | 4.98 | -1.52 | 1.18 | -0.62 | 7.28 | 2.18 | 7.28 | 6.98 | -8.02 | 3.18 | -0.82 | 1.58 | 4.88 | 9.88 |
| CO[C@H]1CC[C@H](N2C(=O)CNc3ncc(-c4ccc(C(C)(C)O)nc4)nc32)CC1 [CC-223] (top concentration 10000 nM) | 5.12 | 2.92 | -0.48 | 1.32 | 8.12 | 0.62 | 4.22 | 0.72 | 8.82 | 1.92 | 1.32 | 1.12 | -1.38 | 0.42 | 13 | 0.62 | 6.12 | -0.28 | 5.52 | 5.12 |
| CCC(C)n1ncn(-c2ccc(N3CCN(c4ccc(OCC5COC(Cn6cncn6)(c6ccc(Cl)cc6Cl)O5)cc4)CC3)cc2)c1=O (stereo not given) [Itraconazole] (top concentration 5000 nM) | 10.7 | -2.12 | -1.92 | -2.42 | 13.1 | 0.98 | -4.32 | -4.32 | -4.32 | -0.32 | 6.98 | -4.22 | -4.32 | 2.88 | -1.72 | -1.02 | -2.32 | 5.68 | -4.12 | -4.12 |
| NC(=O)NO [Hydroxyurea] (top concentration 1000000 nM) | 9.26 | 1.56 | 1.56 | -0.04 | 11.9 | 3.46 | 4.06 | 0.86 | -4.44 | 6.46 | 1.16 | 0.66 | 1.86 | 5.26 | -1.04 | 9.16 | -3.24 | -1.24 | -3.74 | 4.26 |
| CCC/C=C/C=C/C(=O)O[C@H]1/C(=C/C(=O)OC)C[C@H]2C[C@H]([C@@H](C)O)OC(=O)C[C@H](O)C[C@@H]3C[C@H](OC(C)=O)C(C)(C)[C@](O)(C[C@@H]4C/C(=C/C(=O)OC)C[C@H](/C=C/C(C)(C)[C@]1(O)O2)O4)O3 [Bryostatin_1] (top concentration 100 nM) | -7.12 | -5.72 | -7.12 | -7.12 | 26.9 | -4.52 | -7.12 | -6.92 | -7.12 | 1.68 | 0.88 | -7.12 | 6.78 | 30.6 | -7.12 | -7.12 | -7.12 | -7.12 | -7.12 | 25.1 |
| CCS(=O)(=O)c1cccc(-c2cc(C(=O)NC3CCN(C)CC3)c(C)c3[nH]c4ncc(C)cc4c23)c1 [TAK-901] (top concentration 1000 nM) | 10.5 | 8.96 | 10.6 | -2.64 | 10.8 | 6.56 | 11.1 | 0.16 | 6.66 | 12.3 | 0.66 | 6.16 | 9.76 | 10.8 | 10.4 | 7.26 | 7.16 | 5.36 | 11.8 | 10.8 |
| Cc1cnc(Nc2ccc(OCCN3CCCC3)cc2)nc1Nc1cccc(S(=O)(=O)NC(C)(C)C)c1 [Fedratinib] (top concentration 10000 nM) | 4.64 | 1.24 | -2.86 | -4.06 | -0.76 | -2.16 | -2.76 | -2.16 | 2.54 | -2.56 | 3.94 | 3.84 | 4.94 | -0.36 | -6.96 | -0.06 | -2.26 | 0.14 | -1.56 | -0.86 |
| CS(=O)(=O)c1ccc(-c2cnc(N)c(C(=O)Nc3ccccc3)n2)cc1 [VE-821] (top concentration 10000 nM) | 11.2 | 0.34 | 3.94 | -0.66 | 8.74 | 5.54 | 7.14 | -0.66 | -0.06 | 3.14 | -0.66 | 5.64 | 2.54 | 4.64 | 2.54 | 0.74 | -0.66 | 5.04 | -0.66 | 0.84 |
| CC[C@@H]1C(=O)N(C)c2cnc(Nc3ccc(C(=O)N[C@H]4CC[C@H](N5CCN(CC6CC6)CC5)CC4)cc3OC)nc2N1C(C)C [Volasertib] (top concentration 1000 nM) | 14.9 | 11 | 11.3 | 0.4 | 12.4 | 20.8 | 12.8 | 11.3 | 2.9 | 11.5 | 11.2 | 6.4 | 8 | 13.4 | 15 | 13.4 | 10.1 | 15.5 | 12.3 | 18.5 |
| CC(C)NC[C@@H](C(=O)N1CCN(c2ncnc3c2[C@H](C)C[C@H]3O)CC1)c1ccc(Cl)cc1 [Ipatasertib] (top concentration 10000 nM) | 2.4 | 7.3 | 7.1 | -1.8 | 4.3 | 4.8 | 13.2 | 1.7 | 0.2 | 2.9 | 1.1 | 5.8 | 0.7 | -0.6 | 7 | -1.8 | -1.8 | 0.9 | 1.8 | -0.2 |
| CNC(=O)c1ccccc1Nc1cc(Nc2ccc(N3CCOCC3)cc2OC)ncc1C(F)(F)F [VS-4718] (top concentration 10000 nM) | -5 | -4.5 | 1.9 | -3.4 | -3.1 | 8.8 | -1.1 | 0 | -5 | 1.7 | -0.9 | 1.3 | 11.2 | -3 | -5 | 1.1 | 6.8 | 1.7 | 8.7 | 2.1 |
| CC(=O)Nc1ccc(C(=O)Nc2ccccc2N)cc1 [Tacedinaline] (top concentration 1000 nM) | 1.98 | 0.38 | 0.08 | -0.02 | 15.5 | 1.58 | -0.02 | -0.02 | 1.58 | 0.68 | -0.02 | -0.02 | 0.98 | 1.18 | 12.2 | -0.02 | 10.6 | -0.02 | -0.02 | 4.38 |
| O=C(O)c1ccc(-c2c[nH]c3ncc(-c4ccccc4)cc23)cc1C1CCCC1 (top concentration 10000 nM) | 1.36 | -1.44 | -0.94 | -1.44 | 4.16 | 1.66 | -1.44 | -1.44 | 3.76 | 3.46 | -1.24 | -0.44 | 5.46 | -0.94 | 0.86 | 2.46 | 1.66 | 0.06 | 7.66 | 0.66 |
| CNC(=O)c1cc(Oc2ccc(NC(=O)Nc3ccc(Cl)c(C(F)(F)F)c3)c(F)c2)ccn1 [Regorafenib] (top concentration 10000 nM) | 1.84 | 1.24 | 3.24 | 1.34 | 10.9 | 3.44 | 4.44 | 1.54 | -1.56 | 3.24 | 4.44 | 6.74 | 7.34 | 6.74 | 8.54 | 4.04 | 2.74 | 1.34 | 3.24 | 2.04 |
| S=C(NCc1ccc2c(c1)OCO2)N1CCN(c2ncnc3c2oc2ccccc23)CC1 [Amuvatinib] (top concentration 10000 nM) | 5.96 | 2.36 | 4.66 | 5.46 | 8.76 | 10.9 | 5.56 | 0.86 | 5.06 | 7.46 | 4.16 | 2.06 | -1.44 | 4.56 | 3.76 | 3.56 | 4.16 | 2.66 | 2.16 | 1.26 |
| NC(=O)c1cccc2cn(-c3ccc(C4CCCNC4)cc3)nc12 (stereo not given) [Niraparib] (top concentration 10000 nM) | 14.2 | 8.48 | 3.58 | -3.02 | 16.1 | 1.98 | -0.02 | -2.82 | 10.7 | 0.68 | 2.78 | 4.68 | 1.58 | 3.38 | 15.8 | 12.8 | -1.72 | -3.32 | 4.08 | 5.78 |
